Measured values as given in PubChem BioAssay AID1918995 (Molecular Pharmacology Branch, DTP, NCI, 2023).

Test system: 324938-238-R-J1-PDC complex spheroid growth, % test/control
Assay: Anticancer human tumor 324938-238-R-J1-PDC patient-derived bladder carcinoma cell line growth inhibition [AhR]
Settings: for IC50: curve of first compound; for viability, T/C: stronger effect = lower value
How it was run: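 Agents were dosed in half-log steps down from roughly clinical Cmax, or from 10 microM where Cmax was unknown, alone and with AhR antagonists. Read-out: percent test/control growth of tumor spheroids containing HUVEC and MSC stromal cells.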

[1] = second compound 0.1 µM, first compound 0.0316 µM
[2] = second compound 0.1 µM, first compound 0.1 µM
[3] = second compound 0.1 µM, first compound 0.316 µM
[4] = second compound 0.1 µM, first compound 1 µM
[5] = second compound 0.1 µM, first compound 3.16 µM
[6] = second compound 0.1 µM, first compound 10 µM
[7] = second compound 0.316 µM, first compound 0.0316 µM
[8] = second compound 0.316 µM, first compound 0.1 µM
[9] = second compound 0.316 µM, first compound 0.316 µM
[10] = second compound 0.316 µM, first compound 1 µM
[11] = second compound 0.316 µM, first compound 3.16 µM
[12] = second compound 0.316 µM, first compound 10 µM
[13] = second compound 1 µM, first compound 0.0316 µM
[14] = second compound 1 µM, first compound 0.1 µM
[15] = second compound 1 µM, first compound 0.316 µM
[16] = second compound 1 µM, first compound 1 µM
[17] = second compound 1 µM, first compound 3.16 µM
[18] = second compound 1 µM, first compound 10 µM
[19] = second compound 3.16 µM, first compound 0.0316 µM
[20] = second compound 3.16 µM, first compound 0.1 µM
[21] = second compound 3.16 µM, first compound 0.316 µM
[22] = second compound 3.16 µM, first compound 1 µM
[23] = second compound 3.16 µM, first compound 3.16 µM
[24] = second compound 3.16 µM, first compound 10 µM
[25] = second compound 10 µM, first compound 0.0316 µM
[26] = second compound 10 µM, first compound 0.1 µM
[27] = second compound 10 µM, first compound 0.316 µM
[28] = second compound 10 µM, first compound 1 µM
[29] = second compound 10 µM, first compound 3.16 µM
[30] = second compound 10 µM, first compound 10 µM
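Further: spheroids exposed to agents for seven days before viability read.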

Row | Compound | IC50 (second compound 0.1 µM) [µM] | IC50 (second compound 0.316 µM) [µM] | IC50 (second compound 1 µM) [µM] | IC50 (second compound 3.16 µM) [µM] | IC50 (second compound 10 µM) [µM] | viability, T/C [1] [%] | viability, T/C [2] [%] | viability, T/C [3] [%] | viability, T/C [4] [%] | viability, T/C [5] [%] | viability, T/C [6] [%] | viability, T/C [7] [%] | viability, T/C [8] [%] | viability, T/C [9] [%] | viability, T/C [10] [%] | viability, T/C [11] [%] | viability, T/C [12] [%] | viability, T/C [13] [%] | viability, T/C [14] [%] | viability, T/C [15] [%] | other results
1 | Nc1ccccc1NC(=O)c1ccc(CNC(=O)OCc2cccnc2)cc1 + Cc1ccccc1N=Nc1ccc(NC(=O)c2ccnn2C)c(C)c1 | 2.23 | 1.74 | 3.83 | 2.75 | 3.09 | 104 | 118 | 98.1 | 62.1 | 48.6 | 38.3 | 93.7 | 110 | 104 | 55.5 | 50.2 | 37.8 | 91.8 | 94.5 | 85.8 | viability, T/C [16]: 64.6%; viability, T/C [17]: 56%; viability, T/C [18]: 38%; viability, T/C [19]: 82.9%; viability, T/C [20]: 102%; viability, T/C [21]: 79.1%; viability, T/C [22]: 58.4%; viability, T/C [23]: 53.7%; viability, T/C [24]: 43.1%; viability, T/C [25]: 86.8%; viability, T/C [26]: 91.4%; viability, T/C [27]: 77.4%; viability, T/C [28]: 57.7%; viability, T/C [29]: 56.4%; viability, T/C [30]: 40.5%
2 | O=C(C=Cc1cccc(S(=O)(=O)Nc2ccccc2)c1)NO + Cc1ccccc1N=Nc1ccc(NC(=O)c2ccnn2C)c(C)c1 | 3.11 | 2.79 | 3.06 | 2.57 | 2.79 | 103 | 91.5 | 98.4 | 65.5 | 53.8 | 33.4 | 98 | 102 | 81.1 | 69 | 48.1 | 32.5 | 93.3 | 99.1 | 84.4 | viability, T/C [16]: 75.8%; viability, T/C [17]: 48.2%; viability, T/C [18]: 33.2%; viability, T/C [19]: 84.1%; viability, T/C [20]: 84.6%; viability, T/C [21]: 83.5%; viability, T/C [22]: 66.3%; viability, T/C [23]: 47.2%; viability, T/C [24]: 38.6%; viability, T/C [25]: 78.4%; viability, T/C [26]: 85.2%; viability, T/C [27]: 71.3%; viability, T/C [28]: 62.1%; viability, T/C [29]: 49.6%; viability, T/C [30]: 36.3%
3 | O=C(c1cc(Cc2n[nH]c(=O)c3ccccc23)ccc1F)N1CCN(C(=O)C2CC2)CC1 + Cc1ccccc1N=Nc1ccc(NC(=O)c2ccnn2C)c(C)c1 | > 10 | > 10 | > 10 | > 10 | > 10 | 98 | 105 | 101 | 103 | 87.6 | 75.5 | 99.4 | 99.8 | 91.7 | 92.1 | 89.8 | 68.5 | 94.4 | 100 | 95.5 | viability, T/C [16]: 90.6%; viability, T/C [17]: 78.7%; viability, T/C [18]: 72.3%; viability, T/C [19]: 84.5%; viability, T/C [20]: 79%; viability, T/C [21]: 87.3%; viability, T/C [22]: 84.5%; viability, T/C [23]: 74.4%; viability, T/C [24]: 65.2%; viability, T/C [25]: 84.6%; viability, T/C [26]: 83.4%; viability, T/C [27]: 81.2%; viability, T/C [28]: 85.1%; viability, T/C [29]: 72.4%; viability, T/C [30]: 65.9%
